Experimental data from paper PMC8318231, “Rate-of-Kill (RoK) assays to triage large compound sets for Chagas disease drug discovery: Application to GSK Chagas Box” (PLoS Neglected Tropical Diseases, 2021).

Key:
[1] = system: T. cruzi Tulahuen trypomastigotes; assay: T. cruzi trypomastigote assay (Cell Titer-Glo viability, ATP luminescence); type: cell-based, Trypanosoma cruzi; conditions: for Trypomastigotes pIC50 48 hours: 48 hours incubation; for Trypomastigotes pIC50 48 hours / Trypomastigotes pIC50 72 hours: pIC50 = -log10 IC50 in molar units; for Trypomastigotes pIC50 72 hours: 72 hours incubation; for 72 pIC50 (trypomastigotes, raw data of Fig 1D): 72 hours, plotted values, censored values given without sign; for 48 pIC50 / 72 pIC50: trypomastigote assay; for 48 pIC50: 48 h; for 72 pIC50: 72 h
Procedure, shortened: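 Tulahuen trypomastigotes from infected LLC-MK2 culture supernatants (days 5–8) plated at 5 × 10^4 per well in DMEM/2% FBS with compound at 5 μM single-shot final or in dose response. Viability by CellTiter-Glo ATP luminescence after 10 min at room temperature, normalised to no-cell (100%) and DMSO (0%) controls.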

[2] = system: H9c2 (rat cardiomyocytes); assay: RoK assay, number of host cells nuclei (drug-related cytotoxicity, H9c2 output, Cmin_Tox); conditions: H9c2 host cells
Procedure, shortened: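 H9c2 rat cardiomyocytes infected with T. cruzi trypomastigotes, plated in 384-well format, compound-treated and imaged over a time course. Host nuclei counted after formaldehyde fixation and DRAQ5 staining by high-content imaging. Cmin_Tox is the lowest concentration reducing host cells below 50% of initial density.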

TcCYP51 = conditions: formerly reported; cited from earlier work

| Compound | Trypomastigotes pIC50 48 hours [1] | Trypomastigotes pIC50 72 hours [1] | 72 pIC50 (trypomastigotes, raw data of Fig 1D) [1] | 48 pIC50 ([1]; figure 1A) | 72 pIC50 ([1]; figure 1A) | 72 pIC50 ([1]; figure 1B) | Cmin_Tox [2] [µM] | CYP51 pIC50 (TcCYP51) |
| --- | --- | --- | --- | --- | --- | --- | --- | --- |
| O=C(NCC1CCCCC1)c1cc(=O)c2ccccc2o1 [TCMDC-123621] | 5 | 5 | 5 | 5 | 5 | 5 | 50.0 | < 4 |
| Cl.O=c1cc(NCCCNC2CCOc3c(I)cc(Cl)cc32)[nH]c2ccccc12 (stereo not drawn) [TCMDC-139489] | 5.8 | 6 |  |  |  |  | 50.0 | 4.8 |
| Cc1cccc(N2CCCN(Cc3c[nH]c4ccccc34)CC2)n1 [TCMDC-143185] | 6.7 |  |  |  |  |  | 5.6 | < 4 |
| O=C(NCCc1cccnc1)c1ccc(-c2ccccc2F)o1 [TCMDC-143190] | < 4.3 | < 4.3 | < 4.3 | < 4.3 | < 4.3 | < 4.3 | >50 | 7.2 |
| COc1ccc(NS(=O)(=O)c2cc(-c3cc(C)[nH]n3)ccc2C)cc1OC [TCMDC-143194] | 4.7 | 5.2 |  |  |  |  | 18.5 | 4.4 |
| O=S(=O)(c1cccc(CSc2nnc(-c3ccc4c(c3)OCO4)o2)c1)N1CCOCC1 [TCMDC-143197] | < 4.3 | < 4.3 | < 4.3 | < 4.3 | < 4.3 | < 4.3 | >50 | 4.9 |
| CC1CN(S(=O)(=O)c2ccc(NC(=O)c3cc(C4CC4)nc4c3cnn4C(C)C)cc2)CC(C)O1 (stereo not drawn) [TCMDC-143200] | 5.3 | 4.8 |  |  |  |  | >50 | < 4 |
| O=C(NCCc1cccnc1)c1csc(-c2ccccc2)n1 [TCMDC-143203] | < 4.3 | < 4.3 | < 4.3 | < 4.3 | < 4.3 | < 4.3 | >50 | 7.2 |
| CC(=O)Nc1nc(-c2cc(C)ccc2C)c(C)s1 [TCMDC-143207] | < 4.3 | < 4.3 | < 4.3 | < 4.3 | < 4.3 | < 4.3 | >50 | < 4 |
| Cn1nccc1-c1cc(OC(CN)c2ccccc2)cnc1-c1ccco1.O=C(O)C(F)(F)F.O=C(O)C(F)(F)F (stereo not drawn) [TCMDC-143221] | 4.4 | < 4.3 |  |  |  |  | >50 | 7.2 |
| CS(=O)(=O)c1ccc(CC(=O)Nc2nc(-c3ccc(Cl)s3)cs2)cc1 [TCMDC-143224] | < 4.3 | < 4.3 | < 4.3 | < 4.3 | < 4.3 | < 4.3 | >50 | < 4 |
| CCN(C)Cc1ccc(N2CCC(NS(=O)(=O)c3ccc4c(c3)CCO4)CC2)nc1 [TCMDC-143244] | < 4.3 | < 4.3 | < 4.3 | < 4.3 | < 4.3 | < 4.3 | >50 | < 4 |
| COc1ccc(S(=O)(=O)NC(C)C)cc1Nc1ncc(-c2cccc(F)c2)cn1 [TCMDC-143248] | < 4.3 | < 4.3 | < 4.3 | < 4.3 | < 4.3 | < 4.3 | >50 | < 4 |
| O=C(NCCc1ccccc1Cl)c1cccn1-c1cccnc1 [TCMDC-143253] | < 4.3 | < 4.3 | < 4.3 | < 4.3 | < 4.3 | < 4.3 | >50 | 7.1 |
| COc1ccc(S(=O)(=O)Nc2ccccc2OC)cc1NC(=O)CCCc1c[nH]c2ccccc12 [TCMDC-143256] | 5 | 4.9 |  |  |  |  | >50 | < 4 |
| COc1ccc2c(Cl)c(C(=O)N3CCC3)sc2c1Cl [TCMDC-143262] | 6.2 | 6.4 |  |  |  |  | >50 | < 4 |
| CCN(CC)S(=O)(=O)c1ccc(C(=O)Nc2cc(C)nn2-c2nc(C)c(C)c(=O)[nH]2)cc1 [TCMDC-143273] | 6.2 | 6.3 |  |  |  |  | >50 | < 4 |
| COc1ccc(C(C)(C)C)cc1S(=O)(=O)n1ccnc1 [TCMDC-143275] | < 4.3 | < 4.3 | < 4.3 | < 4.3 | < 4.3 | < 4.3 | >50 | 8.1 |
| CCCn1c(NC(=O)Cc2ccc(Cl)cc2)nc2ccccc21 [TCMDC-143279] | 5.9 | 6 |  |  |  |  | >50 | < 4 |
| CCC(=O)Nc1ccc(C(=O)Nc2ccccc2-c2ccccc2)cc1 [TCMDC-143286] | 5.9 | 6 |  |  |  |  | >50 | < 4 |
| Cc1cccnc1CN1CCN(CCCOc2ccc(-c3ccc(C(N)=O)cc3)cc2)CC1 [TCMDC-143291] | 4.8 | 4.4 |  |  |  |  | >50 | < 4 |
| COc1ccc(C(C)N(C)c2ncc3c(N)nc(N)nc3n2)cc1F (stereo not drawn) [TCMDC-143298] | 6.5 | 6.7 |  |  |  |  | >50 | < 4 |
| O=C(NCc1ccncc1)c1ccccc1N1CCCN(C(=O)Cc2ccc(F)c(F)c2)CC1.O=C(O)C(F)(F)F.O=C(O)C(F)(F)F [TCMDC-143300] | < 4.3 | < 4.3 | < 4.3 | < 4.3 | < 4.3 | < 4.3 | >50 | 7.1 |
| O=C(O)C(F)(F)F.O=c1ccc2ccc(F)c3c2n1C[C@H]3CN1CCC(NCc2cc3ccccc3o2)CC1 [TCMDC-143301] | 4.5 | 4.4 |  |  |  |  | >50 | 4.5 |
| CS(=O)(=O)NC1CCC(Oc2cc3cnccc3cc2-c2ccsc2)CC1.O=C(O)C(F)(F)F (stereo not drawn) [TCMDC-143302] | 4.5 | < 4.3 |  |  |  |  | >50 | 7.6 |
| Cc1c(C(=O)NCCCCn2ccnc2)oc2c(C)cccc12 [TCMDC-143304] | < 4.3 | < 4.3 | < 4.3 | < 4.3 | < 4.3 | < 4.3 | >50 | 7 |
| COc1ccc(C(=O)Nc2cc(C(F)(F)F)ccc2N2CCOCC2)c(OC)c1 [TCMDC-143310] | 5.8 | 6 |  |  |  |  | >50 | < 4 |
| FC(F)(F)c1cc(C2CCCN(Cc3c[nH]c4ccccc34)C2)nc2ncnn12.O=C(O)C(O)C(O)C(=O)O (stereo not drawn) [TCMDC-143311] | 4.9 | 5.2 |  |  |  |  | >50 |  |
| COc1ccc(NS(=O)(=O)c2cc(NC(=O)Cc3ccc(C)cc3)ccc2N2CCOCC2)cc1 [TCMDC-143313] | 5.9 | 6.3 |  |  |  |  | 0.6 | < 4 |
| COc1cc(NC(=O)Nc2cccc(CNC(=O)OC3CCCCC3)c2)ccc1-c1cnco1 [TCMDC-143376] |  | 4.9 |  |  |  |  | 16.7 | 4.6 |
